According to patent publication US20130316963A1, “INNATE DEFENCE REGULATORY PEPTIDE COMPOSITIONS FOR TREATMENT OF ARTHRITIS” (UNIVERSITY OF MANITOBA, priority 2010, published 2013):

What was measured:
Assay type in all cases: cell-based
[1] = test system: human FLS cells; test: MMP-3 production in tissue culture supernatants of cytokine-stimulated human FLS cells (ELISA); conditions: 24 hr
Procedure: Synovial tissues were obtained from patients with OA in accordance to a protocol by the Institutional Review Board at the University of Manitoba. FLS cells were isolated from the synovial tissues following the procedure taught by Kammouni et al. (2007, Regulation of apoptosis in fibroblast-like synoviocytes by the hypoxia-induced Bcl-2 family member Bcl-2/adenovirus E1B 19-kd protein-interacting protein 3. Arthritis Rheum. 56:2854-2863). Briefly, the tissues were digested with 1 mg/ml collagenase and 0.05 mg/ml hyaluronidase (both obtained from Sigma-Aldrich Co., Oakville, ON, Canada) in Hanks' balanced salt solution (Gibco; Invitrogen Canada Inc., Burlington, ON, Canada) for 1-2 hours at 37° C. Cells were washed and cultured in DMEM media (Gibco) supplemented with sodium pyruvate and non-essential amino acids (referred to as complete DMEM media henceforth), containing 10% (v/v) fetal bovine serum (FBS) in a humidified incubator at 37° C. and 10% CO2. Isolated human FLS cells (ex-vivo) were seeded at 2×10^4 cells/ml, either 0.5 ml per well in 48-well tissue culture plate, or 3 ml per well in 6-well tissue culture plate as required and cultured in complete DMEM media containing 10% (v/v) FBS overnight. The following day the culture media was changed to complete DMEM containing 1% (v/v) FBS before the addition of the various stimulants. The FLS cells were not used beyond passage five. […] Cellular cytotoxicity was evaluated by monitoring the release of lactate dehydrogenase (LDH) employing a colorimetric detection kit (Roche Diagnostics, Laval, QC, Canada).
Tissue culture supernatants were harvested after stimulation of human FLS cells with various cytokines (as indicated) with and without IDR peptides after 24 hr. […] Production of MMP-3 in the tissue culture supernatants was monitored using Quantikine® human MMP-3 (total) ELISA kit (Quantikine is a registered trademark of R&D Systems, Inc. Minneapolis, Minn., USA) as per the manufacturer's instructions. Production of pro-inflammatory cytokines IL-1β, IL-6, IL-10, TNF, IL-12p70 and chemokines IL-8, RANTES, MIG, MCP-1, IP-10 in the tissue culture supernatants was determined using preconfigured multiplex BD Cytometric Bead Array (CBA) human inflammation and chemokine kits respectively, employing the FACS Calibur flow cytometer (BD Biosciences, Mississauga, ON, Canada) as per the manufacture's instructions. The concentration of the cytokines or chemokines in the tissue culture supernatants was evaluated by establishing a standard curve with serial dilutions of the recombinant human cytokines or chemokines as required. […]

[2] = test system: human FLS cells; test: Transcriptional responses for IL-IRA and SIGIRR in human FLS cells (quantitative real-time PCR); conditions: FIG. 6; for IL-IRA transcription / SIGIRR transcription: in comparison to IL-1β alone, 2 hrs
Procedure: Additionally, transcriptional responses for IL-IRA and SIGIRR in these cell cultures were evaluated by quantitative real-time PCR after 2 hrs.

[3] = test system: p38 MAPK; test: p38 MAPK activity assay (immunoprecipitation, ATF-2 Thr76 phosphorylation immunoblot) in human FLS cells; conditions: IL-1β 10 ng/ml 15 min; IDR-1002 100 μg/ml 45 min prior to or at time of stimulation; FIG. 9
Procedure: Human FLS cells (5×10^4/ml) were seeded in a total volume of 20 ml per 75 cm^2 tissue culture flask in complete DMEM media containing 10% FBS for each condition. The cells were allowed to adhere overnight. Following day the media was changed to 10 ml complete DMEM containing 1% FBS. The cells were either un-stimulated or treated with IL-1β (10 ng/ml) in the presence or absence of IDR-1002 (100 μg/ml) for 15 min. IL-1β is known to induce JNK activation, and also p38 MAPK activity, after 15 min in FLS cells. Peptide IDR-1002 (100 μg/ml) was added either 45 min prior to, or at the time of stimulation with IL-1β. Total protein concentration was evaluated for each cell lysate employing micro BCA (Thermo Scientific). Kinase activities specific to JNK and to p38-MAPK were monitored employing the JNK activity assay kit and the p38 MAPK assay kit (Abcam Inc., Calif., USA) following the manufacturer's instructions. For JNK, 50 μg of total protein per cell lysate was used for immunoprecipitation employing a JNK-specific antibody. The eluate was treated with c-Jun substrate and ATP mixture. Subsequent phosporylation of c-Jun was evaluated by probing immunoblots with anti-phospho-c-Jun (Ser73) specific antibody. […] Subsequent phosporylation of ATF-2 was evaluated by probing immunoblots with a phospho-ATF-2 (Thr76) specific antibody. […]

VQRWLIVWRIRK (IDR-1002 peptide)
suppression of IL-1β-induced MMP-3 ([1]; IDR-1002 100 μg/ml for 45 min prior to IL-1β 10 ng/ml, FIG. 2A): 80%
suppression of IL-1β-induced MMP-3 production ([1]; IL-1β 10 ng/ml, peptide added at time of stimulation, IDR-1002 100 μg/ml, IDR-1 200 μg/ml, FIG. 1A): 70±8%
suppression of MMP-3 production induced by cytomix (TNF-α+IL-1β) ([1]; TNF-α+IL-1β 10 ng/ml each, IDR-1002 100 μg/ml, FIG. 1C): 56±10%
MMP-3 production induced by peptide by itself ([1]; no cytokine, vs un-stimulated control FLS cells, IDR-1002 100 μg/ml): did not induce MMP-3 production above the background amount
IL-IRA transcription ([2]; IDR-1002 alone): significantly increased
SIGIRR transcription ([2]; IDR-1002 alone): significantly increased
IL-IRA transcription ([2]; IDR-1002 plus IL-1β): significantly increased
SIGIRR transcription ([2]; IDR-1002 plus IL-1β): significantly increased
SIGIRR gene expression induced by IDR-1002 relative to cells stimulated with IL-1β ([2]; human FLS): more than 9 fold
IL-1β-induced p38 MAPK activity and phosphorylation of ATF-2 (Thr76) [3]: abrogated
